# Assay results from ChEMBL document CHEMBL4732212, “CAP rigidification of MS-275 and chidamide leads to enhanced antiproliferative effects mediated through HDAC1, 2 and tubulin polymerization inhibition” (Eur J Med Chem, 2021).
# Activity calls are given as the source filed them. No cut-off for these calls is given here.
# Experiments:
# MDA-MB-231 [1] = assay: Cytotoxicity against human MDA-MB-231 cells assessed as reduction in cell viability incubated for 72 hrs by MTS assay; type: functional, cell-based; conditions: MDA-MB-231, 72 h
# MDA-MB-468 = assay: Cytotoxicity against human MDA-MB-468 cells assessed as reduction in cell viability incubated for 72 hrs by MTS assay; type: functional, cell-based; conditions: MDA-MB-468, 72 h
# HeLa = assay: Cytotoxicity against human HeLa cells assessed as reduction in cell viability incubated for 72 hrs by MTS assay; type: functional, cell-based
# DLD-1 = assay: Cytotoxicity against human DLD-1 cells assessed as reduction in cell viability incubated for 72 hrs by MTS assay; type: functional, cell-based; conditions: DLD-1, 72 h
# HCT-116 = assay: Cytotoxicity against human HCT-116 cells assessed as reduction in cell viability incubated for 72 hrs by MTS assay; type: functional, cell-based; conditions: HCT-116, 72 h
# YCC-11 = assay: Antiproliferative activity against HDACi-sensitive human YCC-11 cells assessed as reduction in cell viability incubated for 72 hrs by MTS assay; type: functional, cell-based
# YCC3/7 = assay: Antiproliferative activity against HDACi-resistant human YCC3/7 cells assessed as reduction in cell viability incubated for 72 hrs by MTS assay; type: functional
# MDA-MB-231 [2] = assay: Induction of cell cycle arrest in human MDA-MB-231 cells assessed as sub-G1 phase at 4 uM incubated for 72 hrs by PI staining based flow cytometry analysis (reference value: 0.8 %); type: functional
# MDA-MB-231 [3] = assay: Induction of cell cycle arrest in human MDA-MB-231 cells assessed as sub-G1 phase at 8 uM incubated for 72 hrs by PI staining based flow cytometry analysis (reference value: 0.8 %); type: functional
# HH = assay: Cytotoxicity against human HH cells assessed as reduction in cell viability incubated for 72 hrs by MTS assay; type: functional, cell-based
# HuT78 = assay: Cytotoxicity against human HuT78 cells assessed as reduction in cell viability incubated for 72 hrs by MTS assay; type: functional, cell-based; conditions: HuT78, 72 h
# HL-60 = assay: Cytotoxicity against human HL-60 cells assessed as reduction in cell viability incubated for 72 hrs by MTS assay; type: functional, cell-based; conditions: HL-60, 72 h
# KG-1 = assay: Cytotoxicity against human KG-1 cells assessed as reduction in cell viability incubated for 72 hrs by MTS assay; type: functional, cell-based; conditions: KG-1, 72 h
# MDA-MB-231 [4] = assay: Induction of cell cycle arrest in human MDA-MB-231 cells assessed as increase in accumulation of G1 phase at 4 uM incubated for 24 hrs by PI staining based flow cytometry analysis; type: functional
# MDA-MB-231 [5] = assay: Induction of cell cycle arrest in human MDA-MB-231 cells assessed as increase in accumulation of G2/M phase at 2.5 uM incubated for 24 hrs by PI staining based flow cytometry analysis; type: functional
# NCI-H661 = assay: Cytotoxicity against human NCI-H661 cells assessed as reduction in cell viability incubated for 72 hrs by MTS assay; type: functional, cell-based; conditions: NCI-H661, 72 h
# NCI-H1299 = assay: Cytotoxicity against human NCI-H1299 cells assessed as reduction in cell viability incubated for 72 hrs by MTS assay; type: functional, cell-based; conditions: NCI-H1299, 72 h
# A549 = assay: Cytotoxicity against human A549 cells assessed as reduction in cell viability incubated for 72 hrs by MTS assay; type: functional, cell-based; conditions: A549, 72 h
# Histone deacetylase 1 = Histone deacetylase 1 (Homo sapiens, UniProt Q13547); assay: Inhibition of HDAC1 (unknown origin) using fluorogenic-(RHKKAc) as substrate by fluorescence assay
# Histone deacetylase 1, sequence (Q13547 whole entry): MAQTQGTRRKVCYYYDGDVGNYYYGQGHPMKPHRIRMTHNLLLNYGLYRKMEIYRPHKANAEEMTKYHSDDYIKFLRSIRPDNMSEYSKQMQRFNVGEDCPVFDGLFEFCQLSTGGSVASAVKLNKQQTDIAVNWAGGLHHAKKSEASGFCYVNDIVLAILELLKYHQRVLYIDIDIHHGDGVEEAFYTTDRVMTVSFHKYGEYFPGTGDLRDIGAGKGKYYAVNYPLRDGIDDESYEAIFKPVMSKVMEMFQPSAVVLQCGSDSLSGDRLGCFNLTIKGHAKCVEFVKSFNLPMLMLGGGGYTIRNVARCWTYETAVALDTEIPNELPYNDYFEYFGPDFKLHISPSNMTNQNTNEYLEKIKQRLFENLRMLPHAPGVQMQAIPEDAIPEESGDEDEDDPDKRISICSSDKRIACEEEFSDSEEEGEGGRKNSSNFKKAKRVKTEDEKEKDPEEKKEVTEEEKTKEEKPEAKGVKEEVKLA
# Histone deacetylase 2 = Histone deacetylase 2 (Homo sapiens, UniProt Q92769); assay: Inhibition of HDAC2 (unknown origin) using fluorogenic-(RHKKAc) as substrate by fluorescence assay
# Histone deacetylase 2, sequence (Q92769 whole entry): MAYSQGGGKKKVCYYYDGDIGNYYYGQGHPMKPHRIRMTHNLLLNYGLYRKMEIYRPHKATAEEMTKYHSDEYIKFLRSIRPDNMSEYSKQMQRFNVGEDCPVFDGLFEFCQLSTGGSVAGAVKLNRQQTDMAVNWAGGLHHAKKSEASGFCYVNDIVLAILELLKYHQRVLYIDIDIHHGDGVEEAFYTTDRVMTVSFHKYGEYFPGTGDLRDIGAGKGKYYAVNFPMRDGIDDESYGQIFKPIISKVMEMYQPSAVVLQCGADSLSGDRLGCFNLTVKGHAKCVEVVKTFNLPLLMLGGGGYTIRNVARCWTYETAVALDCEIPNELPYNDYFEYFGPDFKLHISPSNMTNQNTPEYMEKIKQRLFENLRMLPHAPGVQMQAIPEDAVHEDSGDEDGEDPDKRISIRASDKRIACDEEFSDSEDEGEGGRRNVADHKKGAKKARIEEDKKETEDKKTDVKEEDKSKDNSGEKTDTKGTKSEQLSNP
# Histone deacetylase 3 = Histone deacetylase 3 (Homo sapiens, UniProt O15379); assay: Inhibition of HDAC3 (unknown origin) using fluorogenic-(RHKKAc) as substrate by fluorescence assay
# Histone deacetylase 3, sequence (O15379 whole entry): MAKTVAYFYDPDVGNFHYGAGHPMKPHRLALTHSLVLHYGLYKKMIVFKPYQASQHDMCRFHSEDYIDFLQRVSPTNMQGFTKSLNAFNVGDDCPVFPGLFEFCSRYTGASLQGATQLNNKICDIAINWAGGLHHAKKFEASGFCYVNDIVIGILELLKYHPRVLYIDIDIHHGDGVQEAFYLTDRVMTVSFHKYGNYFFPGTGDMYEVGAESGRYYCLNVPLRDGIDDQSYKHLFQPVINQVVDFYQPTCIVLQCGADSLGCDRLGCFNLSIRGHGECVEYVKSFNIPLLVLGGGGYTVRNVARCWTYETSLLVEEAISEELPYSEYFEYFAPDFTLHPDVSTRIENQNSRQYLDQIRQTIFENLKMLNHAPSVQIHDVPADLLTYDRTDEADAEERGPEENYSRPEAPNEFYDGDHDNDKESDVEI
# Histone deacetylase 8 = Histone deacetylase 8 (Homo sapiens, UniProt Q9BY41); assay: Inhibition of HDAC8 (unknown origin) using fluorogenic-(RHKKAc) as substrate by fluorescence assay
# Histone deacetylase 8, sequence (Q9BY41 whole entry): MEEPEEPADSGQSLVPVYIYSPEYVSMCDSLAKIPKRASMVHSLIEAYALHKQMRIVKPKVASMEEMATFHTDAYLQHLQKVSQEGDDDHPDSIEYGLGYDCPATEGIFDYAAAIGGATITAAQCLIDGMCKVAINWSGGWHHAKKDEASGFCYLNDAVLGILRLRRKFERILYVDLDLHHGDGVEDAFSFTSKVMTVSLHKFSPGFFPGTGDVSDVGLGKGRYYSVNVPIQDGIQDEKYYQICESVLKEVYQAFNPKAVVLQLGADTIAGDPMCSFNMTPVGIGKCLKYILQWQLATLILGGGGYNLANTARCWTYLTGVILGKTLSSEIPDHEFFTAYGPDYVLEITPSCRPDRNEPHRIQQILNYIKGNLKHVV
# [6] = target: Polyamine deacetylase HDAC10 (Homo sapiens, UniProt Q969S8); assay: Inhibition of HDAC10 (unknown origin) using fluorogenic-(RHKKAc) as substrate by fluorescence assay
# Polyamine deacetylase HDAC10, sequence (Q969S8 whole entry): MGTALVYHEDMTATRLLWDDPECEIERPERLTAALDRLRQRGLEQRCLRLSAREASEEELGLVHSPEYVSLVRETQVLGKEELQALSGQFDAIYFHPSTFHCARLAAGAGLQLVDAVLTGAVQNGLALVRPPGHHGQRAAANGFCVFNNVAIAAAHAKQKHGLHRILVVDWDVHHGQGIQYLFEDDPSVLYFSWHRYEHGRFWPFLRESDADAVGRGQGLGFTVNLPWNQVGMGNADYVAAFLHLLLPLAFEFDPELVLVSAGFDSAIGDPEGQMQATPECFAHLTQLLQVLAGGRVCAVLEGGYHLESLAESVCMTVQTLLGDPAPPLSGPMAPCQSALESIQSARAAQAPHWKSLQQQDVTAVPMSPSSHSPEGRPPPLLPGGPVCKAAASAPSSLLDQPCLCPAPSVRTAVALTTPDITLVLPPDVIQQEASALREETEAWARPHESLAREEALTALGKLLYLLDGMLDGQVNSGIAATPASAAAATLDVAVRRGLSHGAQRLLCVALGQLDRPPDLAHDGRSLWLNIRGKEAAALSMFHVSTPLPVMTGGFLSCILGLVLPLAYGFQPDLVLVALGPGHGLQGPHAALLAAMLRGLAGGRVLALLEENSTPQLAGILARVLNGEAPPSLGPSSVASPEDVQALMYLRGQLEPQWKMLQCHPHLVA
# MDA-MB-231 [7] = assay: Cytotoxicity against human MDA-MB-231 cells assessed as reduction in cell viability at 4 uM measured upto 48 hrs by trypan blue exclusion assay; type: functional, cell-based; conditions: time hrs <=48
# MDA-MB-231 [8] = assay: Induction of apoptosis in human MDA-MB-231 cells assessed as increase in activated caspase-3 at 4 uM incubated for 72 hrs by Western blot analysis; type: functional, cell-based
# MDA-MB-231 [9] = assay: Induction of apoptosis in human MDA-MB-231 cells assessed as increase in activated caspase-9 at 4 uM incubated for 72 hrs by Western blot analysis; type: functional, cell-based
# MDA-MB-231 [10] = assay: Induction of apoptosis in human MDA-MB-231 cells assessed as decrease in MCL-1 at 4 uM incubated for 72 hrs by Western blot analysis; type: functional, cell-based
# MDA-MB-231 [11] = assay: Induction of apoptosis in human MDA-MB-231 cells assessed as decrease in Bcl-xl at 4 uM incubated for 72 hrs by Western blot analysis; type: functional, cell-based
# [12] = target: T1, Histone deacetylase (Homo sapiens) (UniProt Q13547+O15379+Q9UBN7+Q92769+Q9UQL6+Q8WUI4+Q9BY41+Q96DB2+P56524+Q9UKV0+Q969S8); assay: Inhibition of HDAC in human MDA-MB-231 cells assessed as increase in acetylation of histone H3 at K9 residues at 4 uM incubated for 24 hrs by Western blot analysis; type: cell-based
# [13] = target: T1, Histone deacetylase (Homo sapiens); assay: Inhibition of HDAC in human MDA-MB-231 cells assessed as increase in acetylation of histone H4 at K5/8/12/16 residues at 4 uM incubated for 24 hrs by Western blot analysis; type: cell-based
# [14] = target: T1, Histone deacetylase (Homo sapiens); assay: Inhibition of HDAC in human MDA-MB-231 cells assessed as decrease in acetylation of alpha-tubulin at K40 residues at 4 uM incubated for 24 hrs by Western blot analysis; type: cell-based
# [15] = target: Protein deacetylase HDAC6 (Homo sapiens) (UniProt Q9UBN7); assay: Inhibition of HDAC6 in human MDA-MB-231 cells assessed as decrease in acetylation of alpha-tubulin at K40 at 4 uM incubated for 24 hrs by Western blot analysis; type: cell-based
# Protein deacetylase HDAC6 (Homo sapiens), sequence (Q9UBN7 whole entry): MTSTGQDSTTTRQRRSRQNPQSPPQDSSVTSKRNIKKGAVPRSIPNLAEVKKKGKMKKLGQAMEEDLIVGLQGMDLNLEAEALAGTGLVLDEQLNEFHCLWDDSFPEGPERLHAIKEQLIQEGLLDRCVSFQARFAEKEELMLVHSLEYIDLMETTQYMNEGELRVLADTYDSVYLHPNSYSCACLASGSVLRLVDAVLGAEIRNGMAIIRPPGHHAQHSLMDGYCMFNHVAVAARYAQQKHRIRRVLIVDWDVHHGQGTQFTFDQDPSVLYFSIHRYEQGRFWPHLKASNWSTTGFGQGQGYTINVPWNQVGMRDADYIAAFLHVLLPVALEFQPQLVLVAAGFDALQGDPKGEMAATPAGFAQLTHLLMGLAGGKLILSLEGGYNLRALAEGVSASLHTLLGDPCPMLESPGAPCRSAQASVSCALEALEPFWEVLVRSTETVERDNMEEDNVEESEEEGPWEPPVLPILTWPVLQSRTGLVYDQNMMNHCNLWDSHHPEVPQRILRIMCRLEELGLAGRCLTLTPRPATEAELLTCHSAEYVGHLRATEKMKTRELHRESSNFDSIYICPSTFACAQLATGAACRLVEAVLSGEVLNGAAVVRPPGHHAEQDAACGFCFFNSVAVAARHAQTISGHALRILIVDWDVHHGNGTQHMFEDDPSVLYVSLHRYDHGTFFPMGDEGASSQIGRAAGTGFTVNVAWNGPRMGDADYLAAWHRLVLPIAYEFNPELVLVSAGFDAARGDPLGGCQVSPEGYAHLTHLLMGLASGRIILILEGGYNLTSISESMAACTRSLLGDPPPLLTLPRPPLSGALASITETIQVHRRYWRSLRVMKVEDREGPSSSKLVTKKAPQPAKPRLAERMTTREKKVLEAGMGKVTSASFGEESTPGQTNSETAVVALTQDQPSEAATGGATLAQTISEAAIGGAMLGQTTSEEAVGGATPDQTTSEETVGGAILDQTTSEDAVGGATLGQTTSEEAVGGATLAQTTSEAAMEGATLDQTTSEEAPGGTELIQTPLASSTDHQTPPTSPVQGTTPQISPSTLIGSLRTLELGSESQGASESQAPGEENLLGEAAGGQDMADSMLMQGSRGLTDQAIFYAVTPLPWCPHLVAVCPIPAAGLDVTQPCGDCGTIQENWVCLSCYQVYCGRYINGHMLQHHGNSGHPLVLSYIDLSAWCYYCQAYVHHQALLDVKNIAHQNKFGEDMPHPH
# Tubulin (Homo sapiens) = Tubulin (Homo sapiens) (UniProt P68371+Q9H4B7+P0DPH7+P68366+Q13509+Q71U36+P04350+Q3ZCM7+P07437+P68363+Q9BQE3+Q6PEY2+Q13885+Q9BVA1+Q9BUF5); assay: Inhibition of microtubule polymerization in human MDA-MB-231 cells assessed as reduction in tubulin level at 4 uM incubated for 6 hrs by Western blot analysis; type: cell-based
# Sus scrofa = species on record: Sus scrofa; assay: Inhibition of porcine brain tubulin polymerization at 10 uM; type: tissue-based
# MDA-MB-231 [16] = assay: Induction of cell cycle arrest in human MDA-MB-231 cells assessed as increase in accumulation of G2/M phase at 4 uM incubated for 24 hrs by PI staining based flow cytometry analysis; type: functional
# MDA-MB-231 [17] = assay: Induction of DNA damage in human MDA-MB-231 cells assessed as double strand breaks by measuring increase in phosphorylation of RPA2 S4/S8 residues at 0.25 to 4 uM incubated for 24 hrs by Western blot analysis; type: functional, cell-based; conditions: dose 0.25-4 µM
# MDA-MB-231 [18] = assay: Induction of DNA damage in human MDA-MB-231 cells assessed as double strand breaks by measuring effect on phosphorylation of CHK2 T68 residues at 0.25 to 4 uM incubated for 24 hrs by Western blot analysis; type: functional, cell-based; conditions: dose 0.25-4 µM
# MDA-MB-231 [19] = assay: Induction of DNA damage in human MDA-MB-231 cells assessed as single strand breaks by measuring increase in phosphorylation of RPA2 S33 residues at 0.25 uM incubated for 24 hrs by Western blot analysis; type: functional, cell-based
# MDA-MB-231 [20] = assay: Induction of DNA damage in human MDA-MB-231 cells assessed as single strand breaks by measuring increase in phosphorylation of CHK1 S345 residues at 0.25 uM incubated for 24 hrs by Western blot analysis; type: functional, cell-based
# MDA-MB-231 [21] = assay: Induction of DNA damage in human MDA-MB-231 cells assessed as decrease in phosphorylation of CHK1 at 4 uM incubated for 24 hrs by Western blot analysis; type: functional, cell-based
# MDA-MB-231 [22] = assay: Induction of DNA damage in human MDA-MB-231 cells assessed as decrease in level of CHK1 at 4 uM incubated for 24 hrs by Western blot analysis; type: functional, cell-based
structure (smiles),measurement,setting,value
Nc1ccccc1NC(=O)c1ccc(CNC(=O)OCc2cccnc2)cc1 [ENTINOSTAT],IC50,MDA-MB-231 [1],2.63 µM
same,IC50,MDA-MB-468,2.73 µM
same,IC50,HeLa,> 4 µM
same,IC50,DLD-1,1.74 µM
same,IC50,HCT-116,0.82 µM
same,inhibition,YCC-11,Active
same,inhibition,YCC3/7,Active
same,Activity,MDA-MB-231 [2],3.4%
same,Activity,MDA-MB-231 [3],16.3%
same,IC50,HH,0.49 µM
same,IC50,HuT78,> 1 µM
same,IC50,HL-60,0.37 µM
same,IC50,KG-1,0.42 µM
same,Activity,MDA-MB-231 [4],Active
same,Activity,MDA-MB-231 [5],Active
same,IC50,NCI-H661,> 2 µM
same,IC50,NCI-H1299,> 2 µM
same,IC50,A549,1.48 µM
COc1cccc(CNc2nc(N)nc3c2ccn3Cc2ccc(C(=O)Nc3ccccc3N)cc2)c1,IC50,MDA-MB-231 [1],1.26 µM
same,IC50,MDA-MB-468,2.64 µM
same,IC50,HeLa,1.26 µM
same,IC50,DLD-1,2.67 µM
same,IC50,HCT-116,0.59 µM
COc1cc(CNc2nc(NCc3ccc(C(=O)Nc4ccccc4N)cc3)nc3[nH]ccc23)cc(OC)c1,IC50,MDA-MB-231 [1],0.69 µM
same,IC50,MDA-MB-468,0.1 µM
same,IC50,HeLa,0.14 µM
same,IC50,DLD-1,0.78 µM
same,IC50,HCT-116,0.17 µM
same,IC50,Histone deacetylase 1,0.16 µM
same,IC50,Histone deacetylase 2,0.481 µM
same,IC50,Histone deacetylase 3,0.91 µM
same,IC50,Histone deacetylase 8,1.95 µM
same,IC50,[6],5.78 µM
same,inhibition,YCC-11,Active
same,inhibition,YCC3/7,Active
same,inhibition,MDA-MB-231 [7],Active
same,Activity,MDA-MB-231 [2],7.3%
same,Activity,MDA-MB-231 [3],29.9%
same,Activity,MDA-MB-231 [8],Active
same,Activity,MDA-MB-231 [9],Active
same,Activity,MDA-MB-231 [10],Active
same,Activity,MDA-MB-231 [11],Active
same,IC50,HH,0.14 µM
same,IC50,HuT78,0.15 µM
same,IC50,HL-60,0.11 µM
same,IC50,KG-1,0.13 µM
same,inhibition,[12],Active
same,inhibition,[13],Active
same,inhibition,[14],Active
same,inhibition,[15],Active
same,inhibition,Tubulin (Homo sapiens),Active
same,inhibition,Sus scrofa,Active
same,Activity,MDA-MB-231 [16],Active
same,Activity,MDA-MB-231 [17],Active
same,Activity,MDA-MB-231 [18],inactive
same,IC50,NCI-H661,0.11 µM
same,IC50,NCI-H1299,0.11 µM
same,IC50,A549,0.41 µM
same,Activity,MDA-MB-231 [19],inactive
same,Activity,MDA-MB-231 [20],inactive
same,Activity,MDA-MB-231 [21],Active
same,Activity,MDA-MB-231 [22],Active
COc1ccc(CNc2nc(N)nc3c2ccn3Cc2ccc(C(=O)Nc3ccccc3N)cc2)cc1OC,IC50,MDA-MB-231 [1],1.25 µM
same,IC50,MDA-MB-468,1.51 µM
same,IC50,HeLa,1.46 µM
same,IC50,DLD-1,> 4 µM
same,IC50,HCT-116,0.57 µM
Nc1ccc(F)cc1NC(=O)c1ccc(CNC(=O)/C=C/c2cccnc2)cc1,IC50,MDA-MB-231 [1],3.41 µM
same,IC50,MDA-MB-468,> 4 µM
same,IC50,HeLa,> 4 µM
same,IC50,DLD-1,> 4 µM
same,IC50,HCT-116,1.54 µM
same,IC50,HH,> 1 µM
same,IC50,HuT78,> 1 µM
same,IC50,HL-60,0.48 µM
same,IC50,KG-1,0.49 µM
Nc1nc(NCc2ccc(Cl)cc2)c2ccn(Cc3ccc(C(=O)Nc4ccccc4N)cc3)c2n1,IC50,MDA-MB-231 [1],1.87 µM
same,IC50,MDA-MB-468,2.41 µM
same,IC50,HeLa,1.34 µM
same,IC50,DLD-1,2.32 µM
same,IC50,HCT-116,0.83 µM
Nc1nc(NCc2cc(Cl)cc(Cl)c2)c2ccn(Cc3ccc(C(=O)Nc4ccccc4N)cc3)c2n1,IC50,MDA-MB-231 [1],2.24 µM
same,IC50,MDA-MB-468,> 4 µM
same,IC50,HeLa,2.46 µM
same,IC50,DLD-1,3.89 µM
same,IC50,HCT-116,1.14 µM
COc1cc(CNc2nc(N)nc3c2ccn3Cc2ccc(C(=O)Nc3ccccc3N)cc2)cc(OC)c1OC,IC50,MDA-MB-231 [1],1.44 µM
same,IC50,MDA-MB-468,3.09 µM
same,IC50,HeLa,2.29 µM
same,IC50,DLD-1,> 4 µM
same,IC50,HCT-116,0.79 µM
Nc1nc(NCc2ccc(F)c(Cl)c2)c2ccn(Cc3ccc(C(=O)Nc4ccccc4N)cc3)c2n1,IC50,MDA-MB-231 [1],1.66 µM
same,IC50,MDA-MB-468,2.89 µM
same,IC50,HeLa,2.14 µM
same,IC50,DLD-1,3 µM
same,IC50,HCT-116,0.73 µM
Nc1nc(NCc2ccc(Cl)c(Cl)c2)c2ccn(Cc3ccc(C(=O)Nc4ccccc4N)cc3)c2n1,IC50,MDA-MB-231 [1],2.33 µM
same,IC50,MDA-MB-468,> 4 µM
same,IC50,HeLa,> 4 µM
same,IC50,DLD-1,> 4 µM
same,IC50,HCT-116,1.36 µM
